Assay results as given in patent US5688938A, “Calcium receptor-active molecules” (priority 1995, dated 1997).
Entries after “also recorded” stand apart in the source; their conditions may differ. Like-named read-outs stand apart in the source and are kept apart here.

What was measured:
[1] = tested on: osteoclast calcium receptor; test: [Ca^2+]i (indo-1) in rat osteoclasts; assay type: cell-based
[2] = serum/blood calcium, PTH, albumin and phosphate in rats, intraperitoneal; assay type: in vivo, rat; conditions: rat, i.p.
Protocol: Compounds shown to activate the bovine parathyroid cell calcium receptor in vitro were tested for hypocalcemic activity in vivo. […] […] […] Serum total calcium, albumin and phosphate were measured by techniques well known in the art.

[3] = biological target: T1, parathyroid cell calcium receptor (Bos taurus, UniProt P35384); test: cell-based; assay type: cell-based; conditions: for potentiation of mobilization of intracellular Ca^2+ elicited by extracellular divalent cations / change in [Ca^2+]i at low extracellular Ca^2+ / increase in [Ca^2+]i at intermediate extracellular Ca^2+: 100 μM; for change in [Ca^2+]i at low extracellular Ca^2+: 0.5 mM extracellular Ca^2+; for increase in [Ca^2+]i at intermediate extracellular Ca^2+: 1-[…] extracellular Ca^2+; for effect on intracellular Ca^2+: 500 μM
T1 sequence (P35384 21-1085 limits assumed): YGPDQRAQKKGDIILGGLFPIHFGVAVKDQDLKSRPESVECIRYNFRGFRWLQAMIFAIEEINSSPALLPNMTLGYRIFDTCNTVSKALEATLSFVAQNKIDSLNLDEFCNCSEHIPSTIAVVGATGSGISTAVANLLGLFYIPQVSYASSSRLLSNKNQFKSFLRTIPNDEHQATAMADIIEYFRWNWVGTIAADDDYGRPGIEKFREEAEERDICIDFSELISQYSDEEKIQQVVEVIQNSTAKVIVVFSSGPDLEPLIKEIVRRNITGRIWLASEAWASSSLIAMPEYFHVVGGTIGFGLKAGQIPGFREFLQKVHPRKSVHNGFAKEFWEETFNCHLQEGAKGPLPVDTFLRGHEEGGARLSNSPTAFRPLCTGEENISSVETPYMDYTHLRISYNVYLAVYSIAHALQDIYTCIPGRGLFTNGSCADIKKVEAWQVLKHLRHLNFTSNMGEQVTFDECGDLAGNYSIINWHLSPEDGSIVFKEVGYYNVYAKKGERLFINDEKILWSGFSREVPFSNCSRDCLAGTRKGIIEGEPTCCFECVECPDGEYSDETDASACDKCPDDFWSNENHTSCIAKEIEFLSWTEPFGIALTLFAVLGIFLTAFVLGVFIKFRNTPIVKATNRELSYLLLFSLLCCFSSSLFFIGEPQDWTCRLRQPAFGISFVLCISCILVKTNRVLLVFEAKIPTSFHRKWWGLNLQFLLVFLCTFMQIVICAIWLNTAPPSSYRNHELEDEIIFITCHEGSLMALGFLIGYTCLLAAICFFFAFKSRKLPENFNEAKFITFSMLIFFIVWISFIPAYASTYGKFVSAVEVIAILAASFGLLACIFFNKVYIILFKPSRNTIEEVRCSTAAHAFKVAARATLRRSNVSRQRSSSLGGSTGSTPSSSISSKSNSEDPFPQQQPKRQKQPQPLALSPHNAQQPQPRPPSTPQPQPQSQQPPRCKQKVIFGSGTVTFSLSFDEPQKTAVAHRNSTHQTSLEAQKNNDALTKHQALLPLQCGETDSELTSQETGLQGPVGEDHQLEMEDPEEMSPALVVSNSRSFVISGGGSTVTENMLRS
Protocol: For example,.bovine parathyroid cells loaded with fura-2 are initially suspended in buffer containing 0.5 mM CaCl2. A test substance is added to the cuvette in a small volume (5-15 μl) and changes in the fluorescence signal are measured. Cumulative increases in the concentration of the test substance are made in the cuvette until some predetermined concentration is achieved or no further changes in fluorescence are noted.
(§1) This section describes procedures used to obtain and treat parathyroid cells from calves and humans. […] Human parathyroid glands, were obtained from patients undergoing surgical removal of parathyroid tissue for primary or uremic hyperparathyroidism (uremic HPT), and were treated similarly to bovine tissue.
Glands were trimmed of excess fat and connective tissue and then minced with fine scissors into cubes approximately 2-3 mm on a side. Dissociated parathyroid cells were prepared by collagenase digestion and then purified by centrifugation in Percoll buffer. The resultant parathyroid cell preparation was essentially devoid of red blood cells, adipocytes, and capillary tissue as assessed by phase contrast microscopy and Sudan black B staining. Dissociated and purified parathyroid cells were present as small clusters containing 5 to 20 cells.
The cells were then transferred to plastic flasks (75 or 150 cm^2 ; Falcon) and incubated overnight at 37° C. in a humid atmosphere of 5% CO2. No serum is added to these overnight cultures, since its presence allows the cells to attach to the plastic, undergo proliferation, and dedifferentiate. Cells cultured under the above conditions were readily removed from the flasks by decanting, and show the same viability as freshly prepared cells.
The cells were then pelleted, resuspended in the same buffer, but lacking the ester, and incubated a further 15 minutes at 37° C. The cells were subsequently washed twice with PCB containing 0.5 mM CaCl2 and 0.5% BSA and maintained at room temperature (about 20° C.). Immediately before use, the cells were diluted five-fold with prewarmed 0.5mM CaCl2 -PCB to obtain a final BSA concentration of 0.1%. The concentration of cells in the cuvette used for fluorescence recording was 1-2×10^6 /ml.
The fluorescence of indicator-loaded cells was measured at 37° C. in a spectrofluorimeter (Biomedical Instrumentation Group, University of Pennsylvania, Philadelphia, Pa.) equipped with a thermostated cuvette holder and magnetic stirrer using excitation and emission wavelengths of 340 and 510 nm, respectively. […] Leakage of dye is dependent on temperature and most occurs within the first 2 minutes after warming the cells in the cuvette. Dye leakage increases only very slowly thereafter. To correct the calibration for dye leakage, cells were placed in the cuvette and stirred at 37° C. for 2-3 minutes. The cell suspension was then removed, the cells pelleted, and the supernatant returned to a clean cuvette. […] This estimate was subtracted from the apparent Fmin.
Dissociated bovine parathyroid cells were purified on gradients of Percoll and cultured overnight in serum-free medium. […] That is,

[4] = net positive charge; assay type: physicochemical; conditions: for Net (+) Charge: Table 1, at physiological pH
[5] = tested on: Ca^2+ influx in parathyroid cells; test: influx of extracellular Ca^2+ in bovine parathyroid cells; assay type: cell-based; conditions: for [Ca^2+]i: 100 to 1000 μM, 2 mM CaCl2; for effect on increases in [Ca^2+]i elicited by extracellular Ca^2+: pretreatment
[6] = biological target: T2, bovine parathyroid cell calcium receptor (Bos taurus, UniProt P35384); test: Cl^- current in Xenopus oocytes expressing BoPCaR 1; assay type: cell-based; conditions: 1 mM extracellular Ca^2+
T2 construct: expressed in transfected cells; host or cells: Xenopus laevis oocytes injected with cRNA from BoPCaR 1
T2 sequence (P35384 21-1085 limits assumed): T1 sequence (P35384 21-1085 limits assumed)
Protocol: These responses are mediated by the following series of biochemical events:
Xenopus oocytes were injected with BoPCaR 1, the 5.3 Kb cDNA encoding a bovine parathyroid cell calcium receptor as described in Example 25. After two to three days, Cl^- currents were examined in the oocytes using a two-electrode voltage clamp.
Xenopus oocytes were injected with BoPCaR 1 as described in Example 25. After two to three days, Cl^- currents were examined in the oocytes using two electrode voltage clamp.

[7] = biological target: T1, parathyroid cell calcium receptor; test: block of extracellular Ca^2+-evoked increases in [Ca^2+]i in bovine parathyroid cells (calcilytic); assay type: cell-based
[8] = tested on: bovine parathyroid cells; test: PTH secretion from bovine parathyroid cells; assay type: cell-based
Protocol: In most experiments, cells loaded with fura-2 were also used in studies of PTH secretion.
PTH secretion was measured by first suspending cells in PCB containing 0.5 mM CaCl2 and 0.1% BSA.

[9] = biological target: T3, parathyroid cell calcium receptor (Homo sapiens, UniProt P41180); test: [Ca^2+]i (fura-2) in human parathyroid cells; assay type: cell-based; conditions: 1 μM
T3 construct: Dissociated parathyroid cells were prepared from a parathyroid adenoma obtained by surgery from a patient with primary hyperparathyroidism; endogenous in cells; host or cells: primary dissociated human parathyroid cells (adenoma or hyperplastic tissue from surgery)
T3 sequence (P41180 20-1078): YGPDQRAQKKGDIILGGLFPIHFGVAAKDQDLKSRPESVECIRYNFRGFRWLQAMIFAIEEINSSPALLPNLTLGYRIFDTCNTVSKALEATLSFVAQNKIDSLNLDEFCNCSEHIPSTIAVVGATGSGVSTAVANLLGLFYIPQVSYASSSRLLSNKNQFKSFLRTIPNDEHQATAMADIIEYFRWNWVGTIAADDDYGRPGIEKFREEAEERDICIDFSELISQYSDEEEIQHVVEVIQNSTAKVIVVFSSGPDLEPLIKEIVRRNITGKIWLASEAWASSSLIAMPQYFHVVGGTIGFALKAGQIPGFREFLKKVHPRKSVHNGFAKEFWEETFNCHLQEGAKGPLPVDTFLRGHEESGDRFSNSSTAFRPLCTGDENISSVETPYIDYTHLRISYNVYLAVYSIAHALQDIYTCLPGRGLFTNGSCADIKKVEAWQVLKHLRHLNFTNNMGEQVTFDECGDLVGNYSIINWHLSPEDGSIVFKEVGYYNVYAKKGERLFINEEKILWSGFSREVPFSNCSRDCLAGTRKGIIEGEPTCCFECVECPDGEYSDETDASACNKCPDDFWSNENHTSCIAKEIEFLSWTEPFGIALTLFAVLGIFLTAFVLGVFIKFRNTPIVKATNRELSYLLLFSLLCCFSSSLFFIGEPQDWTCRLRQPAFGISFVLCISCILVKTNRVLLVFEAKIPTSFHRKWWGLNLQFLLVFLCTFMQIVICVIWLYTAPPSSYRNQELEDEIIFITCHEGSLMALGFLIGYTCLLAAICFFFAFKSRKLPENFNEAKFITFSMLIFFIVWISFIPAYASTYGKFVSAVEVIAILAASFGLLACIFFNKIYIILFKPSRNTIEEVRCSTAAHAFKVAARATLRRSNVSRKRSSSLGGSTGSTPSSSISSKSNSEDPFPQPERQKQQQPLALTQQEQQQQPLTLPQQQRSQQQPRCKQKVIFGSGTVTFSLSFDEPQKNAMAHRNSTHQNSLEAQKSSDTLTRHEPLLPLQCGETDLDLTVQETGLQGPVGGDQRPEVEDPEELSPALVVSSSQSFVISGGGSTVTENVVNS
Protocol: as §1
Dissociated parathyroid cells were prepared from a parathyroid adenoma obtained by surgery from a patient with primary hyperparathyroidism.

## CC(NCCCc1ccccc1)c1ccc(Cl)cc1 (racemic) [Compound 1H]
[1]; Table 6, rat osteoclasts
  EC50: 250 µM

## COc1cccc(C(C)NCCCc2ccccc2)c1 (racemic) [NPS 467]
[2]
  reduction in serum or whole blood Ca^2+: dose-dependent reduction in serum or whole blood Ca^2+
  time to return toward control levels: 24 h
[2]; all doses
  change in serum albumin or phosphate: no change in serum albumin or phosphate levels
[2]; preliminary studies
  circulating PTH: dose-dependent reduction in circulating levels of PTH

## N=C(N)NCCC[C@H](N)C(=O)NCCCNCCCNCCCCCNC(=O)[C@H](CC(N)=O)NC(=O)Cc1c[nH]c2cccc(O)c12 [Argiotoxin-659, reference compound]
[3]
  EC50: 300 µM
[3]; 100 to 300 μM
  increases in [Ca^2+]i: evoked transient increases in [Ca^2+ ]i
[3]; EC50 for mobilizing intracellular Ca^2+, bovine parathyroid cells
  EC50: 300 µM
[4]
  Net (+) Charge: +4

## NC[C@H]1O[C@H](O[C@H]2[C@H](O)[C@@H](O[C@H]3O[C@H](CO)[C@@H](O)[C@H](N)[C@H]3O)[C@H](N)C[C@@H]2N)[C@H](N)[C@@H](O)[C@@H]1O [Bekanamycin]
[4]
  Net (+) Charge: +5
  net positive charge at pH 7.3: +5

## COc1ccc(CCN(C)CCCC(C#N)(c2cc(OC)c(OC)c(OC)c2)C(C)C)cc1OC [Compound D-600, reference compound]
[3]
  potentiation of mobilization of intracellular Ca^2+ elicited by extracellular divalent cations: potentiated the mobilization
  change in [Ca^2+]i at low extracellular Ca^2+: evoked no change in [Ca^2+ ]i
  increase in [Ca^2+]i at intermediate extracellular Ca^2+: small, but robust increase
[5]; 100 μM
  block of influx of extracellular Ca^2+: blocked the influx

## NCCCCCCCCCCCCN [DADD, 1,12-diaminododecane]
[5]
  [Ca^2+]i: prompt fall in [Ca^2+ ]i
  effect on increases in [Ca^2+]i elicited by extracellular Ca^2+: depresses steady-state, but not transient increases in [Ca^2+ ]i
[4]
  Net (+) Charge: +2

## NC[C@H]1O[C@H](O[C@H]2[C@H](O)[C@@H](O[C@H]3O[C@H](CO)[C@@H](O)[C@H](N)[C@H]3O)[C@H](N)C[C@@H]2N)[C@H](O)[C@@H](O)[C@@H]1O [Kanamycin, reference compound]
[3]
  effect on intracellular Ca^2+: without effect
[4]
  net positive charge at pH 7.3: ~+4.5

## NCCCNCCCCNCCCNCCCN(O)CCCNC(=O)Cc1c[nH]c2ccccc12 [NPS 017, reference compound]
[6]
  Cl^- current: oscillatory increases in the Cl^- current

## NCCCCCCCCCCCCNC(=O)Cc1ccc(O)cc1O [NPS 021]
[7]; 0.5 mM extracellular Ca^2+
  change in [Ca^2+]i by the compound itself: does not by itself cause any change in [Ca^2+ ]i
[7]; bovine parathyroid cells
  IC50: ~200 µM
[7]; read-out: concentration abolishing the increase in [Ca^2+]i evoked by extracellular Ca^2+
  IC100: ~500 µM

## NCCCN(CCCN)CCCN(CCCN)CCCCN(CCCN)CCCN(CCCN)CCCN [NPS 381, N^1, N^1, N^5, N^10, N^14, N^14-hexakis-(3-aminopropyl) spermine]
[4]
  Net (+) Charge: +10

## NCCCN(CCCN)CCCNCCCCNCCCN(CCCN)CCCN [NPS 382, N^1, N^1, N^5, N^14, N^14-tetrakis-(3-aminopropyl)spermine]
[4]
  Net (+) Charge: +8

## NCCCN1CCCN(CCCN)CCN(CCCN)CCCN(CCCN)CC1 [NPS 383]
[4]
  Net (+) Charge: +8

## COc1ccc(CC(=O)NCCCCCCCCCCCCN)cc1OC [NPS 384]
[3]; 300 μM
  increase in [Ca^2+]i: did not evoke an increase in [Ca^2+ ]i
  potentiation of transient increases in [Ca^2+]i: fails to do so
[5]; 300 μM
  block of influx of extracellular Ca^2+: blocked influx of extracellular Ca^2+
[5]
  [Ca^2+]i: prompt fall in [Ca^2+ ]i
  effect on increases in [Ca^2+]i elicited by extracellular Ca^2+: depresses steady-state, but not transient increases in [Ca^2+ ]i

## NCCCCNCCCN [Spermidine]
[4]
  Net (+) Charge: +3
[1]; osteoclasts, 1000 µM
  increase in [Ca^2+]i relative to maximal extracellular Ca^2+: about 10%

## NCCCNCCCCNCCCN [Spermine]
[8]
  inhibition of PTH secretion: inhibited PTH secretion to the same extent as extracellular Ca^2+

## [H]/N=C(/N)N[C@H]1[C@H](O)[C@@H](O)[C@H](O[C@@H]2O[C@@H](C)[C@](O)(C=O)[C@H]2O[C@@H]2O[C@@H](CO)[C@H](O)[C@@H](O)[C@@H]2NC)[C@@H](N/C(N)=N\[H])[C@@H]1O [Streptomycin]
[4]
  Net (+) Charge: +3
  net positive charge at pH 7.3: +3

## NCCNCCNCCNCCN [TEPA, Tetraethylenepentamine]
[4]
  Net (+) Charge: +5

## NCCNCCNCCN [TETA, Triethylenetramine]
[4]
  Net (+) Charge: +4

## CCN(CC)CCCCCCCCOC(=O)c1cc(OC)c(OC)c(OC)c1 [TMB-8, reference compound]
[3]
  potentiation of mobilization of intracellular Ca^2+ elicited by extracellular divalent cations: potentiated the mobilization; also recorded: potentiated transient increases in [Ca^2+ ]i
  change in [Ca^2+]i at low extracellular Ca^2+: evoked no change in [Ca^2+ ]i
  increase in [Ca^2+]i at intermediate extracellular Ca^2+: small, but robust increase
[5]; 100 μM
  block of influx of extracellular Ca^2+: blocked the influx

## CCC[C@@H]1C[C@@H](C(=O)N[C@@H]([C@H]2O[C@H](SC)[C@H](O)[C@@H](O)[C@H]2O)[C@@H](C)O)N(C)C1 [lincomycin, reference compound]
[3]
  effect on intracellular Ca^2+: without effect
[4]
  net positive charge at pH 7.3: +1

## COCCOC(=O)C1=C(C)NC(C)=C(C(=O)OC(C)C)C1c1cccc([N+](=O)[O-])c1 (centres unmarked) [nimodipine]
[9]
  effect on sustained increases in [Ca^2+]i elicited by extracellular Mg^2+: not affected by nimodipine

## CCOC(=O)C1=C(C)NC(C)=C(C(=O)OC)C1c1cccc([N+](=O)[O-])c1 (centres unmarked) [nitrendipine, reference compound]
[3]; 1 μM
  effect on basal [Ca^2+]i or increases evoked by extracellular Ca^2+: None of the dihydropyridines tested

## N[C@@H](Cn1oc(=O)[nH]c1=O)C(=O)O [quisqualate, reference compound]
[3]; bovine parathyroid cells, or Xenopus oocytes expressing calcium receptors
  response to mGluR agonists: did not respond

## Gentamicin
[4]
  Net (+) Charge: +5
  net positive charge at pH 7.3: +5
